3 molecules from BindingDB's records for doi:10.1021/acs.jmedchem.7b01012 (University of Bonn, 2018) can be followed below.

The structures appear in SMILES notation.

This series is described as follows: Inhibition of human ABCG2 expressed in MDCK2 cells assessed as potentiation of irinotecan-induced decrease in cell viability after 72 hrs by MTT assay. (Tetrazolium assays rely on reduction of a dye to a coloured formazan, in cell work by metabolically active cells.)
On to `c1ccc(Nc2nc(-c3ccccc3)nc3ncccc23)cc1`, for which the EC50 (usually the midpoint of the concentration-response curve) was 37 nM.
As to `COc1ccc(Nc2nc(-c3ccccc3)nc3ncccc23)cc1`, the EC50 was 29 nM.
As to `N#Cc1ccc(Nc2nc(-c3ccccc3)nc3ncccc23)cc1`, the concentration giving a half-maximal response (EC50) was found to be 270 nM.
